Assay results taken from ChEMBL document CHEMBL4725308, “MK-5204: An orally active β-1,3-glucan synthesis inhibitor” (Bioorg Med Chem Lett, 2020).
Values after ≈ are worked out from the molar mass of the structure shown.

Key:
Candida albicans [1] = assay: Antifungal activity against Candida albicans MY1055 assessed as fungal growth inhibition measured after 24 hrs in presence of mouse serum by liquid microdilution method; type: functional
Aspergillus fumigatus = assay: Antifungal activity against Aspergillus fumigatus MF5668 assessed as fungal growth inhibition measured after 24 hrs by liquid microdilution method; type: functional; conditions: read-out: MEC
[2] = Inhibition of beta-1,3-glucan synthase in Candida albicans MY1055 microsomal membrane using UDP-[3H]-glucose as substrate incubated for 2 hrs in presence of UTP by radioactivity-based assay; type: cell membranes
Candida albicans [3] = assay: Antifungal activity against Candida albicans MY1055 assessed as fungal growth inhibition measured after 24 hrs by liquid microdilution method; type: functional
Candida albicans [4] = assay: Antifungal activity against Candida albicans MY1055 infected in DBA/2 mouse model assessed as log change in colony forming units in kidney at 25 mg/kg, po bid for 2 days and measured after 4 days by TOKA; type: functional; conditions: time 2 day
Candida albicans [5] = assay: Antifungal activity against Candida albicans MY1055 infected in DBA/2 mouse model assessed as log change in colony forming units in kidney at 6.5 mg/kg, po bid for 2 days and measured after 4 days by TOKA; type: functional; conditions: time 2 day
Candida albicans [6] = assay: Antifungal activity against Candida albicans MY1055 infected in DBA mouse model assessed as log change in colony forming units in kidney at 12.5 mg/kg, po bid for 2 days and measured after 4 days by TOKA; type: functional; conditions: time 2 day
[7] = Oral bioavailability in mouse; type: ADME, organism-based; conditions: in vivo

Row | Compound | MIC (Candida albicans [1]) | IC50 [2] | MIC (Candida albicans [3]) | bioavailability [7] | minimal effective concentration (Aspergillus fumigatus) | Activity (Candida albicans [4]) | Activity (Candida albicans [5]) | Activity (Candida albicans [6])
1 | CC(C)[C@@H](C)[C@@]1(C)CC[C@]2(C)[C@H]3CC[C@@H]4[C@@]5(COC[C@]4(C)[C@@H](OC[C@](C)(N)C(C)C)[C@H](n4cnc(C#N)n4)C5)C3=CC[C@@]2(C)[C@@H]1C(=O)O | > 32 µg/mL | 0.334 µg/mL | 8 µg/mL (≈ 12 µM) |  | 4 µg/mL |  |  | 
2 | CC(C)[C@@H](C)[C@@]1(C)CC[C@]2(C)[C@H]3CC[C@@H]4[C@@]5(COC[C@]4(C)[C@@H](OCC4(N)CCOCC4)[C@H](n4ncnc4C(N)=O)C5)C3=CC[C@@]2(C)[C@@H]1C(=O)O | 2 µg/mL | 0.008 µg/mL | 0.125 µg/mL (≈ 0.18 µM) |  | < 0.03 µg/mL |  |  | 
3 | CC(C)[C@@H](C)[C@@]1(C)CC[C@]2(C)[C@H]3CC[C@@H]4[C@@]5(COC[C@]4(C)[C@@H](OC[C@](C)(N)C(C)C)[C@H](n4cnnc4C#N)C5)C3=CC[C@@]2(C)[C@@H]1C(=O)O | > 32 µg/mL | > 1 µg/mL | 16 µg/mL (≈ 24.1 µM) |  | 8 µg/mL |  |  | 
4 | CC(C)[C@@H](C)[C@@]1(C)CC[C@]2(C)[C@H]3CC[C@@H]4[C@@]5(COC[C@]4(C)[C@@H](OC[C@](C)(N)C(C)C)[C@H](n4ncnc4C(=O)N(C)C)C5)C3=CC[C@@]2(C)[C@@H]1C(=O)O | 8 µg/mL | 0.009 µg/mL | 0.25 µg/mL (≈ 0.352 µM) | 16% | < 0.03 µg/mL | -2.4 log CFU | -1 log CFU | -1.3 log CFU
5 | CC(C)NC(=O)c1ncnn1[C@@H]1C[C@@]23COC[C@@](C)([C@@H]2CC[C@H]2C3=CC[C@@]3(C)[C@H](C(=O)O)[C@@](C)([C@H](C)C(C)C)CC[C@]23C)[C@H]1OC[C@](C)(N)C(C)C | 16 µg/mL | 0.01 µg/mL | 0.25 µg/mL (≈ 0.345 µM) | 10% | < 0.03 µg/mL | -2.3 log CFU | -0.4 log CFU | -1.8 log CFU
6 | CC(C)[C@@H](C)[C@@]1(C)CC[C@]2(C)[C@H]3CC[C@@H]4[C@@]5(COC[C@]4(C)[C@@H](OC[C@](C)(N)C(C)C)[C@H](n4cncn4)C5)C3=CC[C@@]2(C)[C@@H]1C(=O)O | 4 µg/mL | 0.007 µg/mL | 0.25 µg/mL (≈ 0.391 µM) |  | < 0.03 µg/mL |  |  | 
7 | CC(C)[C@@H](C)[C@@]1(C)CC[C@]2(C)[C@H]3CC[C@@H]4[C@@]5(COC[C@]4(C)[C@@H](OC[C@](C)(N)C(C)C)[C@H](n4cnc(Cl)n4)C5)C3=CC[C@@]2(C)[C@@H]1C(=O)O | > 32 µg/mL | 0.019 µg/mL | 8 µg/mL (≈ 11.9 µM) |  | 0.25 µg/mL |  |  | 
8 | CCCNC(=O)c1ncnn1[C@@H]1C[C@@]23COC[C@@](C)([C@@H]2CC[C@H]2C3=CC[C@@]3(C)[C@H](C(=O)O)[C@@](C)([C@H](C)C(C)C)CC[C@]23C)[C@H]1OC[C@](C)(N)C(C)C | 16 µg/mL | 0.007 µg/mL | 0.5 µg/mL (≈ 0.691 µM) | 33% | < 0.03 µg/mL | -2.2 log CFU | -1.1 log CFU | -1.6 log CFU
9 | CC(C)[C@@H](C)[C@@]1(C)CC[C@]2(C)[C@H]3CC[C@@H]4[C@@]5(COC[C@]4(C)[C@@H](OC[C@](C)(N)C(C)C)[C@H](n4ncnc4C(=O)NC4CC4)C5)C3=CC[C@@]2(C)[C@@H]1C(=O)O | 16 µg/mL | 0.005 µg/mL | 0.25 µg/mL (≈ 0.346 µM) | 30% | < 0.03 µg/mL | -2.1 log CFU | -0.8 log CFU | -0.9 log CFU
10 | CNC(=O)c1ncnn1[C@@H]1C[C@@]23COC[C@@](C)([C@@H]2CC[C@H]2C3=CC[C@@]3(C)[C@H](C(=O)O)[C@@](C)([C@H](C)C(C)C)CC[C@]23C)[C@H]1OC[C@](C)(N)C(C)C | 8 µg/mL | 0.004 µg/mL | 0.125 µg/mL (≈ 0.18 µM) | 5% | < 0.03 µg/mL | -2.6 log CFU | -0.6 log CFU | -1.6 log CFU
11 | CC(C)[C@@H](C)[C@@]1(C)CC[C@]2(C)[C@H]3CC[C@@H]4[C@@]5(COC[C@]4(C)[C@@H](OCC4(N)CCCCC4)[C@H](n4ncnc4C(N)=O)C5)C3=CC[C@@]2(C)[C@@H]1C(=O)O | 16 µg/mL | 0.01 µg/mL | 0.06 µg/mL (≈ 0.0865 µM) |  | < 0.03 µg/mL | -1.8 log CFU | -0.5 log CFU | -1.8 log CFU
12 | CC(C)[C@@H](C)[C@@]1(C)CC[C@]2(C)[C@H]3CC[C@@H]4[C@@]5(COC[C@]4(C)[C@@H](OC[C@](C)(N)C(C)C)[C@H](n4cnnc4Cl)C5)C3=CC[C@@]2(C)[C@@H]1C(=O)O | > 32 µg/mL | > 1 µg/mL | 32 µg/mL (≈ 47.5 µM) |  | 16 µg/mL |  |  | 

Further lines, with some results ahead:

Row | MIC (Candida albicans [1]) | IC50 [2] | MIC (Candida albicans [3]) | bioavailability [7] | Compound | minimal effective concentration (Aspergillus fumigatus) | Activity (Candida albicans [4]) | Activity (Candida albicans [5]) | Activity (Candida albicans [6])
13 | 8 µg/mL | 0.006 µg/mL | 0.25 µg/mL (≈ 0.348 µM) |  | CC(C)[C@@H](C)[C@@]1(C)CC[C@]2(C)[C@H]3CC[C@@H]4[C@@]5(COC[C@]4(C)[C@@H](OC[C@](C)(N)C(C)C)[C@H](n4ncnc4S(N)(=O)=O)C5)C3=CC[C@@]2(C)[C@@H]1C(=O)O | < 0.03 µg/mL | -0.7 log CFU | -0.8 log CFU | -0.8 log CFU
14 | 16 µg/mL | 0.005 µg/mL | 0.5 µg/mL (≈ 0.654 µM) |  | CC(C)[C@@H](C)[C@@]1(C)CC[C@]2(C)[C@H]3CC[C@@H]4[C@@]5(COC[C@]4(C)[C@@H](OC[C@](C)(N)C(C)C)[C@H](n4ncnc4I)C5)C3=CC[C@@]2(C)[C@@H]1C(=O)O | < 0.03 µg/mL |  |  | 
15 | 32 µg/mL | 0.004 µg/mL | 1 µg/mL (≈ 1.43 µM) |  | COC(=O)c1ncnn1[C@@H]1C[C@@]23COC[C@@](C)([C@@H]2CC[C@H]2C3=CC[C@@]3(C)[C@H](C(=O)O)[C@@](C)([C@H](C)C(C)C)CC[C@]23C)[C@H]1OC[C@](C)(N)C(C)C | 0.125 µg/mL |  |  | 
16 | 16 µg/mL | 0.008 µg/mL | 0.25 µg/mL (≈ 0.352 µM) | 13% | CCNC(=O)c1ncnn1[C@@H]1C[C@@]23COC[C@@](C)([C@@H]2CC[C@H]2C3=CC[C@@]3(C)[C@H](C(=O)O)[C@@](C)([C@H](C)C(C)C)CC[C@]23C)[C@H]1OC[C@](C)(N)C(C)C | < 0.03 µg/mL | -2.8 log CFU | -0.8 log CFU | -1.4 log CFU
17 | 8 µg/mL | 0.006 µg/mL | 0.125 µg/mL (≈ 0.188 µM) |  | CC(C)[C@@H](C)[C@@]1(C)CC[C@]2(C)[C@H]3CC[C@@H]4[C@@]5(COC[C@]4(C)[C@@H](OC[C@](C)(N)C(C)C)[C@H](n4ncnc4C#N)C5)C3=CC[C@@]2(C)[C@@H]1C(=O)O | < 0.03 µg/mL | -1.1 log CFU | -0.9 log CFU | 0 log CFU
18 | 8 µg/mL | 0.002 µg/mL | 0.5 µg/mL (≈ 0.697 µM) | 33% | CC(C)[C@@H](C)[C@@]1(C)CC[C@]2(C)[C@H]3CC[C@@H]4[C@@]5(COC[C@]4(C)[C@@H](OC[C@](C)(N)C(C)C)[C@H](n4ncnc4Br)C5)C3=CC[C@@]2(C)[C@@H]1C(=O)O | < 0.03 µg/mL | -2.3 log CFU | -0.2 log CFU | -1.7 log CFU
19 | 2 µg/mL | 0.005 µg/mL | < 0.03 µg/mL | 7% | CC(C)[C@@H](C)[C@@]1(C)CC[C@]2(C)[C@H]3CC[C@@H]4[C@@]5(COC[C@]4(C)[C@@H](OC[C@](C)(N)C(C)C)[C@H](n4ncnc4C(N)=O)C5)C3=CC[C@@]2(C)[C@@H]1C(=O)O | < 0.03 µg/mL | -2.5 log CFU | -0.9 log CFU | -0.2 log CFU
20 | 16 µg/mL | 0.01 µg/mL | 0.25 µg/mL (≈ 0.382 µM) |  | CC(C)[C@@H](C)[C@@]1(C)CC[C@]2(C)[C@H]3CC[C@@H]4[C@@]5(COC[C@]4(C)[C@@H](OC[C@](C)(N)C(C)C)[C@H](n4ncnc4N)C5)C3=CC[C@@]2(C)[C@@H]1C(=O)O | 0.125 µg/mL |  |  | 
21 | 8 µg/mL | 0.003 µg/mL | 0.06 µg/mL (≈ 0.0891 µM) | 9% | CC(C)[C@@H](C)[C@@]1(C)CC[C@]2(C)[C@H]3CC[C@@H]4[C@@]5(COC[C@]4(C)[C@@H](OC[C@](C)(N)C(C)C)[C@H](n4ncnc4Cl)C5)C3=CC[C@@]2(C)[C@@H]1C(=O)O | < 0.03 µg/mL | -1.9 log CFU | -1.2 log CFU | -2.2 log CFU
22 | 32 µg/mL | 0.009 µg/mL | 0.5 µg/mL (≈ 0.715 µM) |  | CCSc1ncnn1[C@@H]1C[C@@]23COC[C@@](C)([C@@H]2CC[C@H]2C3=CC[C@@]3(C)[C@H](C(=O)O)[C@@](C)([C@H](C)C(C)C)CC[C@]23C)[C@H]1OC[C@](C)(N)C(C)C | < 0.03 µg/mL |  |  | 
23 | 8 µg/mL | 0.005 µg/mL | 1 µg/mL (≈ 1.37 µM) |  | CCS(=O)(=O)c1ncnn1[C@@H]1C[C@@]23COC[C@@](C)([C@@H]2CC[C@H]2C3=CC[C@@]3(C)[C@H](C(=O)O)[C@@](C)([C@H](C)C(C)C)CC[C@]23C)[C@H]1OC[C@](C)(N)C(C)C | < 0.03 µg/mL |  |  | 
